Earlier results in US20250041246A1, “METHODS AND COMPOSITIONS FOR TREATING VITILIGO” (THE REGENTS OF THE UNIVERSITY OF CALIFORNIA, priority 2021, published 2025).

Key:
[1] = test system: hyperpigmentary disorders; settings: in hyperpigmentary disorders
[2] = test system: existing melanosomes (in melanocytes); settings: due to its effect on existing melanosomes (in melanocytes)

SMILES	effect on skin pigmentation [1]	effect on skin pigmentation [2]
CN(C)C(=N)N=C(N)N [metformin]	lighten skin	
[H]/N=C(/N)N/C(=N/[H])NCCc1ccccc1 [phenformin]		skin darkening effect
